ChEMBL document CHEMBL1287762, “Synthesis and biological evaluation of 3-[4-(amino/methylsulfonyl)phenyl]methylene-indolin-2-one derivatives as novel COX-1/2 and 5-LOX inhibitors” (Bioorg Med Chem Lett, 2010)

Legend:
Rattus norvegicus [1] = experiment: Antiinflammatory activity in Wistar rat assessed as inhibition of carrageenan-induced paw edema at 11.48 mg/kg, po administered 1 hr before carrageenan challenge measured at 3 hrs by plethysmometer; type: functional
[2] = Inhibition of 5-LOX in rabbit peripheral venous blood assessed as formation of […] after 30 mins by HPLC; type: tissue-based, Oryctolagus cuniculus
Oryctolagus cuniculus = organism: Oryctolagus cuniculus; experiment: Selectivity ratio, IC50 for COX-1in rabbit peripheral venous blood to IC50 for COX-2 in rabbit peripheral venous blood; type: tissue-based
Rattus norvegicus [3] = experiment: Ulcerogenic effect in Wistar rat assessed as gastric ulcer area at 11.48 mg/kg, po administered for 7 days by microscopy; type: toxicity, organism-based, Stomach; parameters: dose 11.48 mg/kg, route oral; conditions: in vivo, 168 h
[4] = molecular target: T1, Prostaglandin G/H synthase 2 (Oryctolagus cuniculus, UniProt O02768); experiment: Inhibition of COX-2 in rabbit peripheral venous blood assessed as formation of 12-hydroxyheptadecatrienoic acid after 24 hrs in by HPLC presence of calcium ionophore […] and lipopolysaccharide; type: tissue-based
T1 sequence (O02768 whole entry): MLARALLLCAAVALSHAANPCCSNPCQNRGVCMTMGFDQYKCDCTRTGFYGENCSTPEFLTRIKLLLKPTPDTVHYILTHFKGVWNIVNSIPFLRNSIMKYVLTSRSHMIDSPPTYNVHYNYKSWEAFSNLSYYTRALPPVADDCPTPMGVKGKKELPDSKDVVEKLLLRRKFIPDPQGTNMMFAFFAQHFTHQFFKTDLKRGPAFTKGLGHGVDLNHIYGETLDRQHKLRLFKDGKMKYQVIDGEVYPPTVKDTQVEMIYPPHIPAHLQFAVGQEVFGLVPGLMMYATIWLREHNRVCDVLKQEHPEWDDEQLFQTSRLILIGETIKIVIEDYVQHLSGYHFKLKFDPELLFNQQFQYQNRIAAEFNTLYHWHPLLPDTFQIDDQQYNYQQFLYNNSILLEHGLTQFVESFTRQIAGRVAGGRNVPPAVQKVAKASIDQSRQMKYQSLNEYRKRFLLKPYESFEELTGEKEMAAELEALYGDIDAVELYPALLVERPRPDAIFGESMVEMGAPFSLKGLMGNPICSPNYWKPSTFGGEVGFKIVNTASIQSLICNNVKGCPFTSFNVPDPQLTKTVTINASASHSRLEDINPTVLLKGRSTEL

[5] = molecular target: T2, Prostaglandin G/H synthase 1 (Oryctolagus cuniculus, UniProt O97554); experiment: Inhibition of COX-1 in rabbit peripheral venous blood assessed as formation of 12-hydroxyheptadecatrienoic acid after 24 hrs by HPLC in presence of calcium ionophore A23187
T2 sequence (O97554 whole entry): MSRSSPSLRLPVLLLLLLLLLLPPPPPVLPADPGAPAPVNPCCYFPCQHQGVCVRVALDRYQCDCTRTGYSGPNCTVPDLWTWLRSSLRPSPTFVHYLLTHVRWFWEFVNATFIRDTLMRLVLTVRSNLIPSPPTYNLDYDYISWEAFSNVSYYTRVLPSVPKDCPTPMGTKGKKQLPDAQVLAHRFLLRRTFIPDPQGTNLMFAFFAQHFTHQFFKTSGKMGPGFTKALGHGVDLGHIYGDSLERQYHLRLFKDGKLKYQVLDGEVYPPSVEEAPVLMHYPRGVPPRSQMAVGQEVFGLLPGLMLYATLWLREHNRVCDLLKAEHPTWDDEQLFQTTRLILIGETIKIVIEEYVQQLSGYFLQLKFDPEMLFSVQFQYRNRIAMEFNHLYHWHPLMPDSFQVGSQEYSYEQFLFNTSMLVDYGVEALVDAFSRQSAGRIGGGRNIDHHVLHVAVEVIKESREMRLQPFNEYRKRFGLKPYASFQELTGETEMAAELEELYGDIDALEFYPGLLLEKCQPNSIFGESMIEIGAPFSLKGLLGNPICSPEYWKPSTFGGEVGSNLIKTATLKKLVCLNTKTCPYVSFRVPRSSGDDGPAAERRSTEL

Mus musculus [6] = experiment: Analgesic activity in BALB/c mouse assessed as inhibition of acetic acid-induced writhing response for 15 mins at 22.96 mg/kg, po; type: functional; conditions: 0.25 h
Rattus norvegicus [7] = experiment: Antiinflammatory activity in Wistar rat assessed as inhibition of carrageenan-induced paw edema at 11.48 mg/kg, po administered 1 hr before carrageenan challenge measured at 6 hrs by plethysmometer; type: functional
Rattus norvegicus [8] = experiment: Antiinflammatory activity in Wistar rat assessed as inhibition of carrageenan-induced paw edema at 11.48 mg/kg, po administered 1 hr before carrageenan challenge measured at 1 hr by plethysmometer; type: functional
Rattus norvegicus [9] = experiment: Antiinflammatory activity in Wistar rat assessed as inhibition of carrageenan-induced paw edema at 10.44 mg/kg, po administered 1 hr before carrageenan challenge measured at 1 hr by plethysmometer; type: functional
Rattus norvegicus [10] = experiment: Antiinflammatory activity in Wistar rat assessed as inhibition of carrageenan-induced paw edema at 10.44 mg/kg, po administered 1 hr before carrageenan challenge measured at 6 hrs by plethysmometer; type: functional
Mus musculus [11] = experiment: Analgesic activity in BALB/c mouse assessed as inhibition of acetic acid-induced writhing response for 15 mins at 20.88 mg/kg, po; type: functional; conditions: 0.25 h
Rattus norvegicus [12] = experiment: Ulcerogenic effect in Wistar rat assessed as gastric ulcer area at 10.44 mg/kg, po administered for 7 days by microscopy; type: toxicity, organism-based, Stomach; parameters: dose 10.44 mg/kg, route oral; conditions: in vivo, 168 h
Rattus norvegicus [13] = experiment: Antiinflammatory activity in Wistar rat assessed as inhibition of carrageenan-induced paw edema at 10.44 mg/kg, po administered 1 hr before carrageenan challenge measured at 3 hrs by plethysmometer; type: functional

Row | SMILES | inhibition in vivo at 11.48 mg/kg (Rattus norvegicus [1]) [%] | IC50 [2] [nM] | Ratio IC50 (Oryctolagus cuniculus) | Activity (Rattus norvegicus [3]) [mm2] | IC50 [4] [nM] | IC50 [5] [nM] | inhibition in vivo at 22.96 mg/kg (Mus musculus [6]) [%] | inhibition in vivo at 11.48 mg/kg (Rattus norvegicus [7]) [%] | inhibition in vivo at 11.48 mg/kg (Rattus norvegicus [8]) [%] | inhibition in vivo at 10.44 mg/kg (Rattus norvegicus [9]) [%] | inhibition in vivo at 10.44 mg/kg (Rattus norvegicus [10]) [%] | inhibition in vivo at 20.88 mg/kg (Mus musculus [11]) [%] | Activity (Rattus norvegicus [12]) [mm2] | inhibition in vivo at 10.44 mg/kg (Rattus norvegicus [13]) [%]
1 | CS(=O)(=O)c1ccc(/C=C2/C(=O)Nc3ccc(Br)cc32)cc1 | 47.2 | 560 | 1.1 | 0.44 | 100 | 110 | 82.8 | 29.4 | 33.3 |  |  |  |  | 
2 | CS(=O)(=O)c1ccc(/C=C2/C(=O)Nc3ccc([N+](=O)[O-])cc32)cc1 |  | 3910 | 0.15 |  | 3290 | 500 |  |  |  | 28.6 | 23.5 | 73.2 | 0.81 | 33.3
